According to ChEMBL document CHEMBL5506055, “Hit-to-Lead Optimization of the Natural Product Oridonin as Novel NLRP3 Inflammasome Inhibitors with Potent Anti-Inflammation Activity” (J Med Chem, 2024):
Calls of active or inactive are those of the source. The calls are words filed in the database; no cut-off is given here.

Target: NACHT, LRR and PYD domains-containing protein 3 (Mus musculus) (UniProt Q8R4B8)
Test: Inhibition of NLRP3 inflammasome activation in LPS/ATP-induced C57BL/6 mouse BMDMs assessed as inhibition of ASC oligomerization by measuring reduction in IL-1beta secretion at 50 to 200 nM preincubated with LPS for 4 hrs followed by compound addition for 30 mins and further stimulated with ATP for 30 mins by Western blotting analysis
Format: cell-based
Details: BMDM, dose 50-200 nM, time 1.0 hrs

NACHT, LRR and PYD domains-containing protein 3 (Mus musculus), sequence (Q8R4B8 whole entry, the tested form may be a part): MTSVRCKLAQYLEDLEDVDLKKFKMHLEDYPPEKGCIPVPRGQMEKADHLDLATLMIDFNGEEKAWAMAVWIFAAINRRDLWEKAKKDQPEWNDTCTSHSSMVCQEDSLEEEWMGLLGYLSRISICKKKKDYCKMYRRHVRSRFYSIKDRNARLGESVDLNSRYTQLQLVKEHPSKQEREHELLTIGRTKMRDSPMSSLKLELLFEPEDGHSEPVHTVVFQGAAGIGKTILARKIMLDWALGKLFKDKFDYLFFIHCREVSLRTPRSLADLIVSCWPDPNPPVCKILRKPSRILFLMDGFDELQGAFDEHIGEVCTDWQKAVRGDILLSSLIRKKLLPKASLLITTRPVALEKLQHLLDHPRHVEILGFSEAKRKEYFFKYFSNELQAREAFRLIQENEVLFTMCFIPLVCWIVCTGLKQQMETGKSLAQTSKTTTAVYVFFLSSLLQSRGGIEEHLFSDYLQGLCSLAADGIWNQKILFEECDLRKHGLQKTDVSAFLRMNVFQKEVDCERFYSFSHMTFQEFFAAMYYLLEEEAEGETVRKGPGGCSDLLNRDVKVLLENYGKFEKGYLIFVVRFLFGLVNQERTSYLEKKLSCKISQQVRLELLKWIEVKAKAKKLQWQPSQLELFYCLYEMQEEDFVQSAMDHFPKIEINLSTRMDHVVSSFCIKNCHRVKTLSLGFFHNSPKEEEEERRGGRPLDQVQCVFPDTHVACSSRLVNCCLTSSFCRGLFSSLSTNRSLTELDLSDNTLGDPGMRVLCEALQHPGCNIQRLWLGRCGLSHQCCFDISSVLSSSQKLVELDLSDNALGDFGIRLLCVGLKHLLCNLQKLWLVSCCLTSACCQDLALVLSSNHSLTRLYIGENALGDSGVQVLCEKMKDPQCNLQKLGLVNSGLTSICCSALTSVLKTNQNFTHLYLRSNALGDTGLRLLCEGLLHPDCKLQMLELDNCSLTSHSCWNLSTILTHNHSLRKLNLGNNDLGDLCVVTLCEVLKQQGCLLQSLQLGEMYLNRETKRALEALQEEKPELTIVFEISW

inhibition: Active
SMILES: C=C1C(=O)[C@]23[C@H](O)[C@H]1CC[C@H]2[C@]12C=CCC(C)(C)[C@H]1[C@H](O)[C@@]3(OCCC(=O)O)OC2
